Data from patent US8952192B2, “Phosphorylated and branched dihydroxy-pentane-dione (DPD) analogs as quorum sensing inhibitors in bacteria” (University of Maryland, College Park, priority 2011, dated 2015).
“Also recorded” adds a separate entry of the source. Read-outs that look alike come from different tables or passages of the source.

Legend:
[1] = system: lsr expression in E. coli (lsr-lacZ reporter strains); assay: QS response (lsr expression): AI-2 dependent β-galactosidase production, Miller assay; format: cell-based, Escherichia coli
Method: The panel of C1-alkyl analogs was screened to identify QS modulators in the enteric bacteria E. coli and S. typhimurium. Transcription of the QS associated lsr operon, by using lsr-lacZ reporter strains (Table 2) which produce β-galactosidase in response to added AI-2 was monitored. In order to first establish if the analogs were agonists or antagonists in the QS circuit, the analogs were incubated with E. coli LW7 pLW11 and S. typhimurium MET715 (FIG. 19a-b) both of which are luxS^−. None of the analogs, except ethyl-DPD behaved as agonists for lsr expression. Previous studies investigating AI-2 antagonism in P. aeruginosa or in S. typhimurium were carried out using chemically synthesized AI-2 added to luxS^− cells. […] The same trends were obtained by adding a 1:1 ratio of enzymatically synthesized AI-2 and DPD analogs to the luxS^− strains E. coli LW7 pLW11 and S. typhimurium MET715 (FIG. 11a-b). None of the tested DPD analogs were bacteriocidal or bacteriostatic as the OD600 values of E. coli ZK126 pLW11 and S. typhimurium MET708 in the presence and absence of the analogs were similar (FIG. 10). Though the QS circuitry of the enteric organisms, E. coli and S. typhimurium are homologous they respond differently to the DPD analogs. The E. coli QS circuitry is susceptible to being silenced by a variety of DPD analogs of different shapes and sizes whereas in S. typhimurium, only a handful of DPD analogs could antagonize the action of AI-2. […] Isobutyl-DPD emerged as an effective and non-species-specific quencher; causing significant lsr expression knockdowns in both E. coli and S. typhimurium.
The QS response indicated by lsr gene expression was analyzed in pure culture studies by culturing E. coli LW7 pLW11, E. coli ZK126 pLW11 and S. typhimurium MET708, S. typhimurium MET715 overnight in LB medium supplemented with appropriate antibiotics as stated previously. These cells were then diluted into fresh LB medium (with antibiotics) and grown to an OD600 of 0.8-1.0 at 30° C., 250 rpm. Cells were then collected by centrifugation at 10,000×g for 10 minutes, and resuspended in 10 mM phosphate buffer. AI-2 (20 μM) and the respective analog (20 μM) were added to the E. coli or S. typhimurium suspension for 2 hours at 37° C. AI-2 dependent β-galactosidase production was quantified by the Miller assay.
The QS response indicated by lsr gene expression was analyzed in pure culture studies by culturing E. coli LW7 pLW11 and S. typhimurium MET715 overnight at 30° C. in LB medium supplemented with appropriate antibiotics as stated previously. These cells were then diluted into fresh LB medium (with antibiotics) and grown to an OD600 of 0.4-0.8 at 37° C., 250 rpm. Cells were then collected by centrifugation at 10,000×g for 10 min and resuspended in 10 mM phosphate buffer. AI-2 (20 μM) and the respective analog (20 μM) were added to the E. coli or S. typhimurium suspension for 2 h at 37° C. AI-2 dependent β-galactosidase production was quantified by the Miller assay.
The QS response indicated by lsr gene expression was analyzed in pure culture studies by culturing E. coli LW7 pLW11, E. coli ZK126 pLW11 and S. typhimurium MET708, S. typhimurium MET715 overnight in LB medium individually supplemented with appropriate antibiotics, as specified above. These cells were diluted into fresh LB medium (with antibiotics) and grown to an OD600 of 0.8-1.0 at 30° C., 250 rpm. Cells were collected by centrifugation at 10,000×g for 10 minutes, and resuspended in 10 mM phosphate buffer. AI-2 (20 μM) and the respective analog (20 μM) were added to the E. coli or S. typhimurium suspension for 2 hours at 37° C. AI-2 dependent β-galactosidase production was quantified by the Miller assay.

[2] = system: E. coli W3110 pCT6 dsRED; assay: Tri-species synthetic ecosystem (E. coli, S. typhimurium, P. aeruginosa): AI-2 mediated dsRED expression; format: cell-based; conditions: tri-species culture, 40 μM analog, no exogenous AI-2, 24 h
Method: (§1) Effect of analogs in a tri-species synthetic ecosystem. […] Isobutyl-DPD (40 μM) and phenyl-DPD (40 μM) were added to a tri-species synthetic ecosystem created by culturing E. coli, S. typhimurium and P. aeruginosa in the same tubes. In order to differentiate and monitor the QS response from each organism, different and orthogonal reporter strains were used; in E. coli, AI-2 mediated dsRED expression, in S. typhimurium, AI-2 mediated β-galactosidase production; and in P. aeruginosa effects of AI-2 were examined for pyocyanin production.
(§2) S. typhimurium MET708, P. aeruginosa PAO1 and E. coli W3110 pCT6 dsRED were each cultured separately overnight in LB medium supplemented with the appropriate antibiotic. P. aeruginosa PAO1, S. typhimurium MET708 and E. coli W3110 pCT6 dsRED were diluted (25 μL:2.5 μL:100 μL) of the overnight culture respectively, into a single 2 mL final volume of fresh LB medium without antibiotics. […] The S. typhimurium lacZ (β-galactosidase) activity was measured after 4 h. The E. coli response was determined after 24 h, by fixing the cells with 1:1 cold 4% paraformaldehyde and using flow cytometric analysis. Samples were analyzed by flow cytometry (FACS Canto II, BD 394 Biosciences), with 30,000 gated events analyzed per sample. […]

[3] = system: pyocyanin production in P. aeruginosa PAO1; assay: QS response (pyocyanin production); format: cell-based; conditions: pure culture P. aeruginosa PAO1, DPD analogs (100 μM)
Method: Identifying Modulators of P. aeruginosa QS. DPD analogs (100 μM) were screened for activity in P. aeruginosa PAO1 by monitoring pyocyanin production (FIG. 34b and FIG. 38).
The cells were grown with the analog at 3 mL total volume in 50 mL flasks in LB medium, with continuous shaking. Between 22-24 h, when the cells turned green after pyocyanin secretion, the pigment was extracted. The pyocyanin quantification assay was conducted as described. 2 mL chloroform was added to the 3 mL culture and pipetted up and down. 1 mL of the chloroform was transferred to a separate tube and the pyocyanin was re-extracted into 200 μL of 0.2 M HCl. The absorbance of the solution was measured at OD 520 nm. To calculate the concentration of pyocyanin extracted as μg/mL, the OD at 520 nm was multiplied by 17.07.

[4] = system: S. typhimurium MET708; assay: Tri-species synthetic ecosystem (E. coli, S. typhimurium, P. aeruginosa): AI-2 mediated β-galactosidase production; format: cell-based; conditions: tri-species culture, 40 μM analog, no exogenous AI-2, 4 h
Method: as §1, §2

[5] = system: P. aeruginosa PAO1; assay: Tri-species synthetic ecosystem (E. coli, S. typhimurium, P. aeruginosa): pyocyanin production; format: cell-based; conditions: tri-species culture, 40 μM analog, no exogenous AI-2, 24 h
Method: as §1, §2

[6] = system: P. aeruginosa; assay: DPD analogs and representative bacterial species affected (Table 1); format: cell-based; design: key: x: DPD Analogs and representative bacterial species affected

| Compound | effect on native lsr expression (QS response) ([1]; E. coli ZK126 pLW11 (luxS+), cells produce their own AI-2) | IC50 (lsr expression in E. coli), in words ([1]; Example 6) | IC50 ([1]; concentration reducing lsr expression (β-galactosidase production) to 50% in the presence of 20 μM exogenously added synthetic DPD, read-out: IC50 of analog (nM) to inhibit QS in E. coli) [nM] | QS inhibition in E. coli (dsRED expression) [2] | inhibition of pyocyanin production [3] | QS inhibition in S. typhimurium (β-galactosidase production) [4] | inhibition of AI-2-mediated lsr expression (β-galactosidase), in words ([1]; E. coli LW7 pLW11 (luxS−), 20 μM AI-2 (DPD) + 20 μM analog) | IC50 ([1]; Escherichia coli, read-out: IC50 (lsr expression in E. coli)) [nM] | QS inhibition in P. aeruginosa (pyocyanin production) [5] | bacterial species affected: P. aeruginosa [6] |
| --- | --- | --- | --- | --- | --- | --- | --- | --- | --- | --- |
| CC(C)CC(=O)C(=O)[C@@H](O)CO [Isobutyl-DPD, isobutyl-DPD] | significant knocked down; also recorded: potent QS “quencher” | nanomolar range | 54 | inhibit all three species | lack of inhibitory effects | inhibit all three species | – | – | – | – |
| O=C(C(=O)C(O)CO)c1ccccc1 (stereo not shown) [Phenyl-DPD, Phenyl DPD] | – | – | – | largely ineffective | some inhibition | largely ineffective | no | > 40000 | retained some activity | x |
